IC50 data for four compounds are collected here from patent US20210238192A1, “VASCULAR ADHESION PROTEIN-1 (VAP-1) MODULATORS AND THERAPEUTIC USES THEREOF” (Blade Therapeutics, Inc., priority 2018, published 2021).

Where a name gives a salt, the structure may show the parent alone.

Assay type in all cases: biochemical
Test [1] has as its target T1, Human MAO-B (Homo sapiens, UniProt P27338).
T1 sequence (P27338 1-520): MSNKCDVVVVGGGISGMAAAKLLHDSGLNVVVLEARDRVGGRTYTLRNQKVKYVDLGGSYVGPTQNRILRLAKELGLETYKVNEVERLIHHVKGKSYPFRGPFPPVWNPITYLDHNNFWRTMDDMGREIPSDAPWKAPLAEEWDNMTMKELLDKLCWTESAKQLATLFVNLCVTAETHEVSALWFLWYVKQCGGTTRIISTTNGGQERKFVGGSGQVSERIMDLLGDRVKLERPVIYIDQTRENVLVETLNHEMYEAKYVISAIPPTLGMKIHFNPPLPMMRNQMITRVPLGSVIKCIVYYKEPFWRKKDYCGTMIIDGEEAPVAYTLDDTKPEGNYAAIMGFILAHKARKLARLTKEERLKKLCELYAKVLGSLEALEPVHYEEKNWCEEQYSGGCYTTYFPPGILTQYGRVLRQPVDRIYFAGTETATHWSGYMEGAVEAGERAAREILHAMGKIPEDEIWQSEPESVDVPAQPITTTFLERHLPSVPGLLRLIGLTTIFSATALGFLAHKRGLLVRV
Briefly: MAO-B inhibition (Amplex Red continuous fluorescence assay). To be noted: 30 min pre-incubation at room temp; substrate benzylamine; read-out: Human MAO-B IC50. In a few lines: (§1)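 Continuous Amplex Red/HRP fluorescence read of H2O2 (ex/em 510/565 nm, 5 min). Substrates and buffers: VAP-1 benzylamine, […] sodium phosphate pH 7.4, 30 min 37° C preincubation; MAO-A tyramine and MAO-B benzylamine, same buffer, room temp; DAO histamine, 50 mM HEPES pH 7.5, room temp. IC50 from 4-parameter fit of rates.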

The target in test [2] is T2, Human VAP-1 (Homo sapiens, UniProt Q16853).
T2 sequence (Q16853 1-763): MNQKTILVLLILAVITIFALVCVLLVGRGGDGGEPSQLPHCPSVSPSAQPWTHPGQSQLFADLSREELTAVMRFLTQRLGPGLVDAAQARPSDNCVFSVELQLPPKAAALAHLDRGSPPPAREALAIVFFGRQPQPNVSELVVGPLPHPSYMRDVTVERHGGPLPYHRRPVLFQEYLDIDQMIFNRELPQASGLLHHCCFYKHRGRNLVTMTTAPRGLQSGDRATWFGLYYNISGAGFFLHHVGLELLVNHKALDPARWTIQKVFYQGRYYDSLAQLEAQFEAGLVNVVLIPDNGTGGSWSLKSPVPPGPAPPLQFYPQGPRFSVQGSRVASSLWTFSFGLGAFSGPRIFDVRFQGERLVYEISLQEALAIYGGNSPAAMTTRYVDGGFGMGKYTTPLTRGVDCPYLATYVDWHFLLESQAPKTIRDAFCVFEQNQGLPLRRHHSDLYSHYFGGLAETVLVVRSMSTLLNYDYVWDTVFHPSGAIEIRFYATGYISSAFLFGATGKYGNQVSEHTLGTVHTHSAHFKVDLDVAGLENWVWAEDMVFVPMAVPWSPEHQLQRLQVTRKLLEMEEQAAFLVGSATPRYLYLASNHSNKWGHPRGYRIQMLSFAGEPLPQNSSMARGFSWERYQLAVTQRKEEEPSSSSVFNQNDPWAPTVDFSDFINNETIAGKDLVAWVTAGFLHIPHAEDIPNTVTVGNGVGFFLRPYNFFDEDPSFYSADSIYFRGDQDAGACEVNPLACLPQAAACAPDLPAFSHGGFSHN
Briefly: VAP-1 inhibition assay (Amplex Red continuous fluorescence assay). To be noted: 30 min pre-incubation at 37° C.; substrate benzylamine; read-out: Human VAP-1 IC50. In short, it runs like this:
as §1

For test [3], the target named is T3, Human MAO-A (Homo sapiens, UniProt P21397).
T3 sequence (P21397 1-527): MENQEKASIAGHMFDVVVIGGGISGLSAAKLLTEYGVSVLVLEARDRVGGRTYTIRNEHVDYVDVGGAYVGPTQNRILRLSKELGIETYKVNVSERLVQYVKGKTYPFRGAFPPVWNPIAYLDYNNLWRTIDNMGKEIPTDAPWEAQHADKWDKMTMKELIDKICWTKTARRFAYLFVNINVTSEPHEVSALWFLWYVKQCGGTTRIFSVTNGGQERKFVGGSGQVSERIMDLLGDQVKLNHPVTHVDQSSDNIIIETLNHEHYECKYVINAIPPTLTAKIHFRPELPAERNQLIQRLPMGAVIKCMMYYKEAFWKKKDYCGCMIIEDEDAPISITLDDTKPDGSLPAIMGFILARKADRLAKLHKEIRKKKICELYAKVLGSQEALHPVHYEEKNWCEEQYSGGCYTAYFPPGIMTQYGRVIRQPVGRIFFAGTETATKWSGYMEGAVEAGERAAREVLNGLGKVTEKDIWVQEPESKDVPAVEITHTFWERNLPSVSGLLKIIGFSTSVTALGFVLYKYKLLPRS
Description: MAO-A inhibition (Amplex Red continuous fluorescence assay). The conditions noted are these: 30 min pre-incubation at room temp; substrate tyramine; read-out: Human MAO-A IC50. In a few lines:
as §1

For test [4], the target named is T4, Human DAO (Homo sapiens, UniProt P19801).
T4 sequence (P19801 20-751): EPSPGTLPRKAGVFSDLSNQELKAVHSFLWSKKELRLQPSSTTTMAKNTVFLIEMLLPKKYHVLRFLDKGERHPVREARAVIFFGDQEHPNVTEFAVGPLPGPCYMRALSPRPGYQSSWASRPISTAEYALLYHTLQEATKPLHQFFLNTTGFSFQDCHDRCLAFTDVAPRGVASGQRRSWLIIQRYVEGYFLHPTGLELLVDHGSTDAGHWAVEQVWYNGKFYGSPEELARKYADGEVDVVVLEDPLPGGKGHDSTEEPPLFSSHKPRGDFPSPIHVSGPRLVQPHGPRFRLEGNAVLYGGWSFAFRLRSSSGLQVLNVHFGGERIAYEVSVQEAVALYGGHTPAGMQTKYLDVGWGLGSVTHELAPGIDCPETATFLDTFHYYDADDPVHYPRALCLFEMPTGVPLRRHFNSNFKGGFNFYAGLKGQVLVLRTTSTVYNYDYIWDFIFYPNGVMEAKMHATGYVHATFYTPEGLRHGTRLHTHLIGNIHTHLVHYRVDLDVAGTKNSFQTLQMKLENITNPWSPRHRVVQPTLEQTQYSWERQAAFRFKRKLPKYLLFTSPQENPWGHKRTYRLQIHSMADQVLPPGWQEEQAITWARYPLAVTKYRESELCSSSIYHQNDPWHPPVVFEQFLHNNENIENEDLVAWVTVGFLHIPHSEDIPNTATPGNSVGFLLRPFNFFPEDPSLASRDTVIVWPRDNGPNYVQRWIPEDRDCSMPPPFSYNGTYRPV
Description: DAO inhibition (Amplex Red continuous fluorescence assay). To be noted: 30 min pre-incubation at room temp; substrate histamine; read-out: Human DAO IC50. In a few lines:
as §1

One may read the IC50 as the midpoint of a concentration-inhibition curve.

As for `NC/C(=C\F)COc1cnc(N2CC[C@H](O)C2)nc1` [Compound 79], the IC50 in test [1] is 3 to 10 µM; in test [2], under 3 µM; in test [3], over 10 µM; in test [4], under 3 µM.

On to `NC/C(=C\F)COc1cccc2c1OCO2` [Compound 14, (E)-2-((benzo[d][1,3]dioxol-4-yloxy)methyl)-3-fluoroprop-2-en-1-amine hydrochloride], for which the IC50 in test [1] was under 3 µM; in test [2], under 3 µM; in test [3] it was under 3 µM; in test [4], 3 to 10 µM.

For the compound `NC/C(=C\F)COc1cccc2scnc12` [Compound 8, (E)-2-((benzo[d]thiazol-4-yloxy)methyl)-3-fluoroprop-2-en-1-amine hydrochloride], the IC50 in test [1], in test [2], in test [3] and in test [4] was under 3 µM in each case.

As to `CCNC(=O)Nc1ccc(OC/C(=C/F)CN)cc1` [Compound 7, (E)-1-(4-((2-(aminomethyl)-3-fluoroalkyl)oxy)phenyl)-3-ethylurea hydrochloride], the IC50 in test [1] is under 3 µM; in test [2], under 3 µM; in test [3], 3 to 10 µM; in test [4] it was 3 to 10 µM.
